Experimental data taken from ChEMBL document CHEMBL1151411, “Plant Anticancer Agents. XIII. Constituents of Austrocedrus chilensis” (1983).
≈ marks a conversion by molar mass, not a printed value.

System: KB
Test: Cytotoxicity against human KB cells
Assay type: functional
Details: read-out: ED50 (the source's name)

| Compound | EC50 [µg/mL] |
| --- | --- |
| CC(C)C1=CC2(O)CC[C@H]3C(C)(C)CCC[C@]3(CO)C2=CC1=O (some centres not stated) | 16 (≈ 50.2 µM) |
| CC(C)c1cc2c(cc1O)[C@@]1(CO)CCCC(C)(C)[C@@H]1CC2 [PISIFEROL] | 100 (≈ 331 µM) |
